Assay results as given in patent US20080183070A1, “Multi-mode medical device system with thermal ablation capability and methods of using same” (Wisconsin Alumni Research Foundation, priority 2007, published 2008).
One block for each molecule: values may come before it.

Key:
[1] = Diffusion of a fluorescent probe in swollen gelatin gel by FRAP; type: physicochemical
Source text: To assess the stability of DTPA[Gd(III)] in the gelatin coating, the diffusion of a fluorescence probe in gelatin was studied by the technique of fluorescence recovery after photobleaching (FRAP). The instrument and data analysis scheme are described in Kim, S. H. and Yu, H., J. Phys. Chem. 1992, 96, 4034, which is hereby fully incorporated by reference. Fluorescein was used as the fluorescence probe due, in part, to its molecular size being roughly the same as that of DTPA[Gd(III)].
The focus of the study was to examine the possible retardation effects of gelatin concentration and cross-link density on the diffusion, which was determined at room temperature, i.e., below the gel point of gelatin. The diffusion of fluorescein probe slows down with the increase of gelatin concentration. The diffusion coefficient decreases from 1.5×10-10 to 9×10-12 m2s−1 when the concentration of gelatin increases from 9% to 40%. […] Accordingly, the probe diffusion is more likely controlled by the concentration of gelatin rather than the cross-link density. On the other hand, the cross-link density may determine the swelling ratio of gelatin, i.e., the concentration of gelatin in aqueous solution. […]

[2] = MR visibility test of the functional gelatin coating on PE rod in saline and yogurt (Example 14); details: after soaking in water for 12 hours
Procedure: Samples having the above formulations were transferred to a glass tube and kept in a water bath at 35° C. A bare PE rod (5 cm in length) was then dipped into the solution, and then removed. The rod was then cooled to room temperature to allow chill-setting of the gelatin solution and to form the coating on the rod surface. The same procedure was repeated to overcoat additional layers of gel. The final dry thickness of gel-coating was about 60 μm.
The gelatin coatings were dried in air while being chemically cross-linked by BVSM. The dried and cross-linked samples were then soaked in distilled water for 12 hours. Soaking each sample in distilled water may remove the DTPA[Gd(III)] that was not physically or chemically constrained by the cross-linked network of gelatin overcoat. Because the DTPA[Gd(III)] complexes were not chemically linked to the gelatin chains, most of them would be expected to diffuse out of the coating when soaked in water, whereas some of DTPA[Gd(III)] may be confined by the crystal domains in gelatin or by hydrogen bonding between gelatin chains and DTPA. In any event, after the soaking, the gelatin coating was dried again in air before MRI test.
The MR visibility of the samples prepared as outlined above, was tested in two media: saline and yogurt. […]

Time to diffuse out of the gelatin coating ([1]; coating thickness 60 μm, diffusion coefficient 9×10-12 m2s−1): about 67 seconds
SMILES: O=C(O)CN(CCN(CC(=O)O)CC(=O)O)CCN(CC(=O)O)CC(=O)O [DTPA, diethylenetriaminepentaacetic acid]

SMILES: O=C([O-])CN(CCN(CC(=O)[O-])CC(=O)O)CCN(CC(=O)[O-])CC(=O)O.[Gd+3] [DTPA[Gd(III)], gadolinium-diethylene triamine pentaacetic acid]
Retention in the gelatin coating [2]: some fraction of DTPA[Gd(III)] remained in the gel

Fluorescence signal remaining in gelatin films ([1]; films soaked in water for 18 hours, including non-cross-linked films): still fluorescence signal
SMILES: O=C1OC2(c3ccc(O)cc3Oc3cc(O)ccc32)c2ccccc21 [fluorescein]
